Assay results taken from patent US20230240290A1, “USE OF (Z)-3-HEXENYL ESTERS AND METHOD FOR PROTECTING PLANTS AGAINST PESTS” (UNIVERSITAT POLITÈCNICA DE VALÈNCIA, priority 2020, published 2023).

Experiments:
Tuta absoluta = assay: Field (commercial greenhouse) assay, leaflets infested by T. absoluta; assay type: in vivo; conditions: commercial tomato greenhouse, infested leaflets per plant, 500 dispensers/ha
Description: (§1) To know the behavior of the dispensers loaded with (Z)-3-hexenyl propionate under real cultivation conditions, four commercial greenhouses for tomato cv Raf located in Xilxes (Castellón province), with a history of problems with T. absoluta contamination at the end of winter, were selected. An experimental design of randomized blocks was carried out where each greenhouse was considered a block with two treatments per block and 4 repetitions per treatment. […]
(§2) Twenty plants randomly chosen by repetition were sampled weekly for 11 weeks, beginning 30 Jan. […] First, the number of leaflets infested by T. absoluta per plant was counted. Then the number of N. tenuis (adults and nymphs) throughout the apical third of each plant (leaves, flowers and shoots) was counted. Following the methodology described above, 6 samples were taken from the apical part of each plant per repetition, and these samples were immediately introduced into liquid nitrogen to quantify the expression of the PR1 and PIN2 genes (described in Example 1 and Example 2). The expression of these genes was quantified one day before, 4, and 8 weeks after hanging the dispensers in the greenhouses.

Diaphorina citri = assay: Citrus field assay with sentinel Murraya paniculata seedlings with and without dispenser; assay type: in vivo
Description: A Valencia orange field with a high presence of receptive shoots and a population of D. citri adults located in the experimental fields of SWFREC (University of Florida) was selected. […] Sentinel plants that were hung inside the tree canopy were used. The sentinel plants were seedlings of Murraya paniculata with shoots receptive to the laying of D. citri. 7 seedlings with a dispenser (polymeric dispenser that was loaded with 1.5 ml of (Z)-3-hexenyl propanoate) and 7 seedlings without a dispenser were used. Each seedling was distributed in the field following a random block design (using a row of trees as a block), and one seedling with a dispenser and another one without was placed in each block. The seedlings were located at a minimum distance of 50 meters from each other to avoid any edge effect.
After 4 days of placing the seedlings, these were collected from the field and taken to the laboratory, where the number of eggs per shoot in each of the seedlings was counted under a binocular loupe.

[1] = tested on: PR1 (marker gene for the SA signaling pathway); assay: Field (commercial greenhouse) assay, transcriptional response of PR1 in tomato plants; assay type: in vivo, tomato cv Raf; conditions: LD dispenser every 20 m2, at 30 and 60 days
Description: as §1, §2

[2] = tested on: LOX2 (precursor of JA jasmonic acid); assay: Transcriptional response of LOX2 in Carrizo citrange plants exposed to the volatile; assay type: in vivo; conditions: intact Carrizo citrange plants exposed 24 h; n=6
Description: Two weeks after seed germination, the seedlings were individually transplanted into pots (8×8×8 cm). The plants were kept in a greenhouse with a plastic cover at approximate climatic conditions of 25±5° C., a relative humidity of 65%±5%, and a natural light photoperiod, about 14:10 h (light:dark). Carrizo citrange plants that had not received any pesticide treatment at 8 weeks of age (approximately 20 cm tall) were used. The volatile (Z)-3-hexenyl propanoate was obtained from Sigma-Aldrich (St. Louis, Mo., USA). The volatile was exposed by using a 2×2 cm piece of filter paper on which 10 μl of a solution containing the corresponding volatile at a concentration of 1:10,000 [(Z)-3-hexenyl propanoate:methanol] was impregnated as an emitting source of the corresponding volatile (Pérez-Hedo, M. et al. Biocontrol, 63: 203-213 (2018)). […]
The methodology followed for the extraction and quantification of gene expression was described by Pérez-Hedo et al. Journal of Pest Science 3: 543-554 (2015). The primers used were forward primer: 5′-[…]-3′ (SEQ ID NO: 11) and reverse primer: 5′-[…]-3′ (SEQ ID NO: 12) for the quantification of LOX2, forward primer: 5′-[…]-3′ (SEQ ID NO: 13) and reverse primer: 5′-[…]-3′ (SEQ ID NO: 14) for PAL and forward primer: 5′-[…]-3′ (SEQ ID NO: 15) and reverse primer: 5′-[…]-3′ (SEQ ID NO: 16) for the NPR5 gene. […]

[3] = tested on: PIN2 (marker gene for the JA signaling pathway); assay: Field (commercial greenhouse) assay, transcriptional response of PIN2 in tomato plants; assay type: in vivo, tomato cv Raf; conditions: LD dispenser every 20 m2, at 30 and 60 days
Description: as §1, §2

For `CC/C=C\CCOC(=O)CC` [(Z)-3-hexenyl propanoate], the “Infestation of T. absoluta lower than control” value (Tuta absoluta) was “about 58%”, the “Reduction of D. citri (laying, eggs per shoot)” value (Diaphorina citri; Valencia orange field, Murraya paniculata sentinel seedlings, dispenser with 1.5 ml, 4 days) was “more than 70%” and the “Laying of D. citri” value (Diaphorina citri; citrus plant exposed to the volatile, summary statement) was “reduced by more than half”. For the same molecule, the “Expression of PR1 compared to plants in the control zone” value [1] was “significantly higher”, the “Transcriptional response of LOX2 compared to control” value [2] was “significantly overexpressed” and the “Expression of PIN2 compared to plants in the control zone” value [3] was “significantly higher”.
